For series [1], the system named is acetic acid-induced writhing. Put plainly: Antinociceptive screen (writhing test). Format: in vivo, Wistar rats. Conditions: Rattus norvegicus, ip, 0.5 h, i.p. 30 min before 0.6% acetic acid, writhes counted over 30 min, read-out: % ANA (in vivo analgesic-antinociceptive activity). On the procedure: (§1) Anti-inflammatory tests were conducted on Fisher-344 inbred rats of ca. 200 g body weight whereas antinociception and motor and sensory functions after sciatic nerve crash were performed on Wistar rats. Both sexes were used. Females pregnant were excluded. Each group was composed of 6 animals. The animals, which have been bred in our laboratory, were housed under standard conditions and received a diet of commercial food pellets and water ad libitum during the maintenance. Our studies were carried out in accordance with recognised guidelines on animal experimentation.
[…] Controls received the liquid vehicle only. All the in vivo experiments were repeated at least in triplicate and were subjected to statistic analysis using the student’s t-test.
The writhing reflex was used. The test compounds were administered i.p. 30 min prior to the i.p. administration of 1 mL/100 g body weight of 0.6% acetic acid. […] After 5 min, the number of stretches characterized by repeated contractions of the abdominal musculature accompanied by extension of the hind limbs was counted every 5 min for the next 30 min. […] The % antinociceptive activity (a:a) was calculated as: % a:a = (n − n'/n) × 100 (a: a analgesic activity, n average number of writhes of control group, n' average number in the test group).

The next series deals with sciatic nerve crush. Put plainly: Sciatic Functional Index after sciatic nerve crush. Format: in vivo, Wistar rats. The source says:
SFI is the current standard for measuring functional recovery following rat sciatic nerve crush. Its calculation involves the measurement of wide-ranging relationships between feet and toes of the hindlimb of recovering animals. SFI values close to −100 indicate severe damage, while SFI values close to 0 indicate normal function. The treated rats improved their walk and the relationship between feet and toes of the crushed hindlimbs starting from day 14 to day 21.
One day prior to the surgery and the behavioral testing, Wistar rats were handled by the investigators and introduced to the testing environment for a brief period of time. Rats were anesthetized with chloral hydrate 4.5% (1 mL/100 g). […] After the exposure, the nerve was crushed once for 30 s at standardized force. The muscle was reapproximated and the skin incision was closed using 6 to 0 sutures. The examination of the loss of sensory and motor function in the operated limb established the crush completeness. Digits in the operated limb were pinched with a blunt forceps. Absence of foot withdrawal and vocalization was recorded as loss of sensory and motor function. Animals were placed under a heating lamp until they recovered from the anesthesia and they returned to their home cages.
The tested solutions were freshly prepared on surgery day (day 0).
[…] The day of the surgery is considered as day 0 [36, 37, 38].
In the present study, the plantar surfaces of the hindlimbs of the rats were impregnated with ink and then the animals were allowed to walk on a paper along a corridor, leaving footprints during walking.
A wooden corridor (1 m × 8 cm) with raised sidewalls was used. Two and a half white paper strips (40 × 7.5 cm) were placed along the corridor and were fixed with adhesive tape closely together and at the base and the sidewalls of the corridor. Each rat was trained to walk steadily along the corridor without stops until it made three at least successful efforts of continuous walking. The footprints were allowed to dry and were then converted into digital images using a computer and a high resolution scanner. The image processing was done by using the ImageJ. This is an open-source image analysis software created in 1997 by Rayne Rasband (National Institute of Health), widely used in medical applications, especially neuroscience, for measuring distances and surface and plotting the data. The footprints were analyzed as described by Bain et al. in measurements were included: • (i) print length (PL): distance from the heel to the third toe, • (ii) toe spread (TS) distance from the first to the fifth toe on both sides and • (iii) intermediate toe spread (ITS) the distance between the middle of the second and fourth toe
All measurements were taken both from the experimental (EPL, ETS, EIT) and the normal (NPL, NTS, NIT) side. The formula used to calculate SFI was the following: SFI = −38.3 (EPL − NPL)/NPL + 109.5 (ETS − NTS)/NTS + 13.3 (EIT − NIT)/NIT − 8.8

Series [2] has as its system carrageenin-induced rat paw oedema. Put plainly: Inhibition of the carrageenin-induced rat paw oedema. It is filed as in vivo, Fisher-344 rats. Conditions: 0.01 mmol/1 kg, i.p., 3.5 h after carrageenin. On the procedure: as §1
The tested compounds 0.01 mmol/kg body weight were suspended in water with few drops of Tween 80 and ground in a mortar before use. Controls received the liquid vehicle only. All the in vivo experiments were repeated at least in triplicate and were subjected to statistic analysis using the student’s t-test.
Oedema was induced in the right hind paw of Fisher 344 rats by the intradermal injection of 0.1 mL 2% carrageenin in water. Each group was composed of 6 animals which they were entirely fasted during the experiment period. The tested compounds 0.01 mmol/kg body weight, were given intraperitoneally simultaneously with the carrageenin injection. The rats were euthanized 3.5 h after carrageenin injection. The difference between the weight of the injected and not-injected paws was calculated for each animal. The change in paw weight was compared with that in control animals (treated with water) and expressed as a percent inhibition of the oedema (ICPE % values in Table 1). Indomethacin 0.01 mmol/kg was used as reference compound. ICPE % are the mean values from two different experiments with a standard error of the mean less than 10%.

Series [3] in a line: Inhibition of linoleic acid lipid peroxidation (AAPH). Conditions: % inhibition at 100 μM; pH 7.4, 37 °C. The procedure: Production of conjugated diene hydroperoxide by oxidation of sodium linoleate in an aqueous dispersion is monitored at 234 nm. AAPH is used as a free radical initiator [12, 24]. Ten microlitres of the 16 mM sodium linoleate solution was added to the UV cuvette containing 930 μL of 0.05 M phosphate buffer, pH 7.4 prethermostated at 37 °C. The oxidation reaction was initiated at 37 °C under air by the addition of 40 mM AAPH solution (50 μL). Ten μL of the tested compounds were added in the mixture. Lipid oxidation was measured in the presence of the same level of DMSO. The rate of oxidation at 37 °C was monitored by recording the increase in absorption at 234 nm caused by conjugated diene hydroperoxides. The results were compared to the appropriate standard inhibitor trolox (63%) (Table 1).

The target in a further series is T1, soybean lipoxygenase (Glycine max, UniProt P08170).
T1 construct: purchased Sigma Chemical, Co. (St. Louis, MO, USA)
T1 sequence (P08170 1-839): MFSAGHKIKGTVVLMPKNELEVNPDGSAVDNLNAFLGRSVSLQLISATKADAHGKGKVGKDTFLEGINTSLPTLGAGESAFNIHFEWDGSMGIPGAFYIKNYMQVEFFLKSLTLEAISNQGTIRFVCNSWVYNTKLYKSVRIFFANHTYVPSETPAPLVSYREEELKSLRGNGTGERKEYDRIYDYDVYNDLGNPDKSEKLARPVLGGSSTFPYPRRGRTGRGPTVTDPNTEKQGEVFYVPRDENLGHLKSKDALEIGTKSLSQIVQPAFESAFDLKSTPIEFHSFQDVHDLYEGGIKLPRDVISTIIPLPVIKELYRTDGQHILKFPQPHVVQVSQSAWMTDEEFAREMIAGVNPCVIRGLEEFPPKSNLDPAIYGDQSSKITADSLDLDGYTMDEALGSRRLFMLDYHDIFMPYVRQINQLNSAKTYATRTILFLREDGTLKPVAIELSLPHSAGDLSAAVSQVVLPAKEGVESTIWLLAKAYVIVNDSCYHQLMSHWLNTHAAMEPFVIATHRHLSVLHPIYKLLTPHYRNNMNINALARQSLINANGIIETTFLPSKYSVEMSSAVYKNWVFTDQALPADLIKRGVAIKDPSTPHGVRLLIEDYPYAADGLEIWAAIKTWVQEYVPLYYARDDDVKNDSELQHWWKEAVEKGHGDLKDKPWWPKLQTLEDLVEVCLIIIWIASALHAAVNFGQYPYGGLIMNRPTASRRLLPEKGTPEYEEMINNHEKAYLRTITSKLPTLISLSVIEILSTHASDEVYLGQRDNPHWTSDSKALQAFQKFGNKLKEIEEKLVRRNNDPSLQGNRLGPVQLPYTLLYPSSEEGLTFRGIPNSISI
Put plainly: Soybean lipoxygenase inhibition in vitro. Format: biochemical. The procedure:
DMSO solution of the tested compound was incubated with sodium linoleate (0.1 mM) and 0.2 mL of soybean lipoxygenase solution (1/9 × 10^−4 w/v in saline) in buffer pH 9 (tris) and at room temperature. […] The results are given in Table 1 expressed as IC50 values or % inhibition at 100 μM.

Series [4] can be described thus: TLC screening for free radical scavengers (DPPH). Conditions: plates sprayed with 0.1 mM DPPH ethanolic solution. The procedure:
TLC was used for screening the synthesized hybrids as radical scavengers. The compound solutions in DMSO were spotted onto a silica gel F254 precoated plate and developed using […] and 95% CHCl3 as developing solvents. After development the plates were air-dried and sprayed with 0.1 mM DPPH ethanolic solution for detecting the compounds with rapid scavenging properties.

The next series deals with esterase. Put plainly: In vitro esterase activity on hybrids. Format: in vitro ADME. Conditions: 1 mM, phosphate buffer pH 7.8, 37 °C, 90 min and 24 h. The procedure:
Representative hybrid molecules are subjected to an esterase activity in vitro. 100 μL of 1 mg/mL 0.001 N hydrochloric acid of esterase solution was added to 1,250 μL of phosphate buffer (0.1 M) pH 7.8 including the tested compounds (150 μL in DMSO, final concentration 1 mM) and incubated at 37 °C for 90 min. The incubated solution was allowed to set at room temperature. Then, the absorption was measured at 256 nm. The measurement was repeated after 24 h of incubation at 37 °C.

Series [5] has as its target T2, pancreatic bovine trypsin (Bos taurus, UniProt P00760).
T2 construct: purchased Sigma Chemical, Co. (St. Louis, MO, USA)
T2 sequence (P00760 24-246): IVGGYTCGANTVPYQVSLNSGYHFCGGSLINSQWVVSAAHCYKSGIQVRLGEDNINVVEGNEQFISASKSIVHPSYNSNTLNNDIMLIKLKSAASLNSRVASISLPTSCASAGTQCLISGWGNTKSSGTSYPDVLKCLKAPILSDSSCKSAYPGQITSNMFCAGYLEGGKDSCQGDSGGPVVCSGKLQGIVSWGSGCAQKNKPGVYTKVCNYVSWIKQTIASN
Put plainly: Inhibition of trypsin induced proteolysis in vitro. It is filed as biochemical. The following applies: bovine albumin substrate, pH 7.6, 37 °C; read-out: IC50 μM Trypsin Inh. The source says: All chemicals, solvents, chemical and biochemical reagents were of analytical grade and purchased from commercial sources (Merck, Merck KGaA, Darmstadt, Germany, Fluka Sigma-Aldrich Laborchemikalien GmbH, Hannover, Germany, Alfa Aesar, Karlsruhe, Germany and Sigma, St. Louis, MO, USA). Soybean lipoxygenase, pancreatic bovine trypsin, sodium linoleate, free radical DPPH and 2,2-azinobis-2-methyl-propanimidamine HCl (AAPH) were obtained from Sigma Chemical, Co. (St. Louis, MO, USA), carrageenin, type K, was commercially available. All starting materials were obtained from commercial sources and used without further purification.
The test was carried out according to a modified Kunitz method. Bovine albumin was used as substrate for trypsin. The reaction mixture consisted of 0.075 mg/mL trypsin (200 μL) and 780 μL of phosphate buffer pH 7.6 (including the tested compounds (20 μL in DMSO, final concentration 100 μM) preincubated at 37 °C for 20 min and then 1 mL of albumin (stock solution 6 g/100 mL in phosphate buffer 0.1 M, pH 7.6) was added and incubated at 37 °C for 30 min. After the incubation 1 mL of 5% trichloroacetic acid was added to the incubated solution to stop the enzyme’s reaction and allowed to set at room temperature for 1 h. Then the solution was filtered by filter paper and the absorption of the filtered solution was measured at 280 nm. Salicylic acid was used as a reference compound (Table 1).

The nature of series [6]: Lipophilicity as RM values by RP-TLC. The following applies: methanol/water 70/30, 24 °C, average of at least five measurements. It is filed as physicochemical. The source says:
Since lipophilicity is a significant physicochemical property determining distribution, bioavailability, metabolic activity and elimination, we tried to determine experimentally the lipophilicity of the new substances by a RPTLC method as RM values (Table 1) and to compare them with the corresponding theoretically calculated clog p values in n-octanol-buffer. This is considered to be a reliable, fast and convenient method for expressing lipophilicity. Lipophilicity (Table 2), was theoretically calculated as Clog p values in n-octanol-buffer by the CLOGP Programme of Biobyte Corp..
Reversed phase TLC (RP-TLC) was performed on silica gel plates impregnated with 5% (v/v) liquid paraffin in light petroleum ether. The mobile phase was a methanol/water mixture (70/30, v/v). The plates were developed in closed chromatography tanks saturated with the mobile phase at 24 °C. Spots were detected under UV light. RM values were determined from the corresponding Rf values (from five individual measurements) using the equation RM = log [(1/Rf) − 1] (Table 1).

Setting [7] is: single i.p. dose 0.01 mmol/mL/kg, 8 h after surgery.

Read-outs that look alike come from different tables or passages of the source. Marks after values point to notes of the source that are not given here.

As for `CC(=O)Nc1ccc(O)cc1` [Paracetamol, 4-acetamidophenol, reference compound], in [1], the inhibition in vivo at 0.01 mmol/0.1 kg turned out to be 66%. The “SFI, Day before Crash” value in the series on sciatic nerve crush (baseline before surgery and dosing) is −12. In the series on sciatic nerve crush (setting [7]), the “SFI, Day-1” value was −93.3; the “SFI, Day-7” value is −93.3; the “SFI, Day-14” value was −36; the “SFI, Day-21” value is recorded as −18.5. Further, the “% ICPE (carrageenin-induced rat paw oedema inhibition)” value in [2] is reported as 21 * %. In addition, in series [2] (listed as paracetamol), the “% ICPE (carrageenin-induced rat paw oedema inhibition)” value is given as 21%. In [3], the “AAPH % (% inhibition of lipid peroxidation)” value is 91%. Also, the concentration for half-maximal inhibition (IC50) at soybean lipoxygenase (sodium linoleate 0.1 mM, tris buffer pH 9, room temperature, read-out: IC50 μM LOX Inh.) turned out to be 82 µM.

For the compound `CC(Cc1ccc(O)c(O)c1)C(C)Cc1ccc(O)c(O)c1` (stereo not shown) [NDGA, nordihydroguaiaretic acid], the “scavenging of DPPH (visual, TLC)” value in series [4] is listed as “white spots on a purple background”.

`O=C(/C=C/c1cccc(Oc2ccccc2)c1)Oc1cc(=O)oc2ccccc12` [Compound 2b, (E)-2-Oxo-2H-chromen-4-yl 3-(3-phenoxyphenyl)acrylate]: in the series on esterase, the “hydrolysis of the ester group by esterase” value is reported as “hydrolyzed”. The IC50 (in series [5]; against soybean lipoxygenase) was 100 µM each time. For the same compound, in series [6], the “RM (±S.D.)” value is −0.661± 0.008. In addition, in [3], the “AAPH % (% inhibition of lipid peroxidation)” value is 100%.

Values taken from paper PMC6271731, “Multitarget Molecular Hybrids of Cinnamic Acids” (Molecules, 2014).
